# Values quoted from earlier work, collected in patent US8637495B2, “Osteoarthritis diet formulations” (Nestec S.A., priority 2004, dated 2014).
# Assays:
# [1] = system: human patients with OA of the knee
# [2] = orally administered
smiles,measurement,setting,value
"N[C@H]1C(O)O[C@H](CO)[C@@H](O)[C@@H]1O (some centres unmarked) [glucosamine, Glucosamine]",clinical signs of OA,"[1]; 1500 mg glucosamine per day, human, OA of the knee",significant improvement
same,long-term progression of OA,"[1]; oral, two studies, patients followed for three years",efficiently inhibited
same,radiolabel detected in exhaled CO2,[2],70%
same,retained in tissue,[2],approximately 10%
same,fraction non-ionized,[2]; physiologic pH of the small intestine,More than 50%
